Data as given in patent US20220340687A1 (NOVARTIS AG, priority 2019, published 2022).

Columns and labels:
Type in all cases: cell-based, human
[1] = test system: IgE bound to FcεR1 on pDCs; assay: Removal of membrane-bound IgE from purified pDCs; conditions: pDCs from atopic donors, IL-3, 5, 10 and mg/mL of Oma, 24 hours
Experimental: (§1) A) Left: Frequency of FcεR1α-bound IgE+ cells gated in pDCs. Right: Frequency of cells with unoccupied FcεR1, gated in pDCs (n=4). B) Viability of pDCs after 24 hours incubation with Oma (n=2). Values are given as mean±SEM. **p<0.01, *p<0.05 in paired t-test comparing multiple conditions.

pDCs [2] = assay: Viability of pDCs after incubation with Oma; conditions: 24 hours incubation with Oma
Experimental: as §1

pDCs [3] = assay: Cytokine signature of TLR9-L-activated pDCs under IgE-FcεR1-crosslinker (ELISA); conditions: omalizumab 10 mg/mL 24 hours prior to crosslinker and TLR9-L, ELISA 24 hours after activation, compared to crosslinker condition
Experimental: Then, the cytokine profile was analysed by ELISA 24 hours after activation.

[4] = test system: pDCs cocultured with naïve CD4+ T cells; assay: Generation of Treg cells by pDCs: omalizumab in comparison to corticosteroids; conditions: 5 or 10 mg/mL of omalizumab for 24 hours before crosslinker and TLR9-L; coculture 5 days
Experimental: After 24 hours, the pDCs were washed and cocultured with naïve CD4+ T cells for 5 days.

[5] = test system: pDCs cocultured with naïve CD4+ T cells; assay: Blocking experiments (IDO, PD-L1, IFN-α) on Treg cells generation by pDCs in coculture; conditions: added to the coculture; p=0.07
From the text: Additionally, it is claimed that IFN-α itself induces the generation of Treg cells.

IgE bound to FcεR1 on pDCs, sequence (P01854 1-428 isoform P01854-1): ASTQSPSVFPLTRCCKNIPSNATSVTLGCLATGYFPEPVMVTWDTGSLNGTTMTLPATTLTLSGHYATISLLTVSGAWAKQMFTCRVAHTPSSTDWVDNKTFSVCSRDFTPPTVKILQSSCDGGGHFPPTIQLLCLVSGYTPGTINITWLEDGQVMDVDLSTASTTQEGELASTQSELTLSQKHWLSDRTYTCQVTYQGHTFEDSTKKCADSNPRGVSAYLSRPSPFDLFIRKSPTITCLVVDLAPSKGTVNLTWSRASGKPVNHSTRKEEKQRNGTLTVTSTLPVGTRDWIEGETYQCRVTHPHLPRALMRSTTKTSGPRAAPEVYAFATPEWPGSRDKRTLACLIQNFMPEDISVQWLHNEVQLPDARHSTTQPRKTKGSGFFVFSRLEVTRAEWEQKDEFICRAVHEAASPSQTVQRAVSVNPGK

| Compound | IgE bound to FcεR1 on pDCs (IgE mean fluorescence intensity, MFI) [1] | frequency of pDCs with FcεR1-bound IgE (FcεR1+IgE+pDCs) [1] | levels of pDCs with unoccupied FcεR1 (FcεR1+IgE-pDCs) [1] | pDCs viability (pDCs [2]) | TNF-α levels (pDCs [3]; p=0.04) | pDCs capacity to produce IFN-α (pDCs [3]; p=0.05) | crosslinker-induced decrease of the frequency of induced Treg cells [4] | pDCs capacity to induce Treg cells under IgE-FcεR1-crosslinker condition [5] |
| --- | --- | --- | --- | --- | --- | --- | --- | --- |
| Omalizumab: recombinant DNA-derived humanized monoclonal antibody that selectively binds to free, circulating human immunoglobulin E (IgE) | decrease in IgE mean fluorescence intensity (MFI) in a dose-dependent manner | significant reduction | increased levels | did not affect pDCs viability | retained low TNF-α levels | restored pDCs capacity to produce IFN-α | reverted by Omalizumab in a dose dependent manner | – |
| Nc1ccccc1C(=O)CC(N)C(=O)O (centres unmarked) [kyn, kynurenine] | – | – | – | – | – | – | – | increased |
